US20070049564A1 (Wyeth, priority 2005, published 2007)
In brackets after ≈: the same amount, converted by molar mass. Where two headings read alike, the source gives them in different places.

Experiments:
E. coli GC 2231 = test: MIC, broth microdilution; details: Escherichia coli
E. coli GC 2232 = test: MIC, broth microdilution; details: Escherichia coli
E. coli GC 2234 = test: MIC, broth microdilution; details: Escherichia coli
E. coli GC 2272 = test: MIC, broth microdilution; details: Escherichia coli
E. coli GC 3226 = test: MIC, broth microdilution; details: Escherichia coli
S. typhimurium GC 2172 = test: MIC, broth microdilution; details: Salmonella enterica, TYPHIMURIUM
S. aureus GC 1131 = test: MIC, broth microdilution; details: Staphylococcus aureus
S. aureus GC 6466 = test: MIC, broth microdilution; details: Staphylococcus aureus
S. aureus GC 1079 = test: MIC, broth microdilution; details: Staphylococcus aureus
S. aureus GC 2216 = test: MIC, broth microdilution; details: Staphylococcus aureus
S. aureus GC 6335 = test: MIC, broth microdilution; details: Staphylococcus aureus
S. epidermidis GC 4935 = test: MIC, broth microdilution; details: Staphylococcus epidermidis
E. faecalis GC 2267 = test: MIC, broth microdilution; details: Enterococcus faecalis
E. faecium GC 4556 = test: MIC, broth microdilution; details: Enterococcus faecium
E. faecium GC 2243 = test: MIC, broth microdilution; details: Enterococcus faecium
S. pneumoniae* GC 4465 = test: MIC, broth microdilution; details: Streptococcus pneumoniae
S. pneumoniae+ GC 4465 = test: MIC, broth microdilution; details: Streptococcus pneumoniae
Protocol: Antimicrobial susceptibility testing. The in vitro activities of the antibiotics are determined by the broth microdilution method as recommended by the National Committee for Clinical Laboratory Standards (NCCLS) (1). Mueller-Hinton II broth (MHBII)(BBL Cockeysville, Md.) is the medium employed in the testing procedures. Microtiter plates containing serial dilutions of each antimicrobial agent are inoculated with each organism to yield the appropriate density (10^5 CFU/ml) in a 100 μl final volume. The plates are incubated for 18-22 hours at 35° C. in ambient air.
Representative compounds were first incubated in mouse serum for an hour prior to the in vitro testing against a panel of selected gram-positive and gram-negative bacteria strains. All compounds were also pre-incubated in water for an hour prior to testing as control.

S. pyogenes GC 4563 = test: MIC, broth microdilution; details: Streptococcus pyogenes
c. albicans GC 3066 = test: MIC, broth microdilution
Staph. aureus Smith = test: In vivo activity (oral, iv; ED50) against Staph. aureus Smith in mice
Protocol: Representative examples of compounds of Formula I were tested for the oral efficacy using S. aureus Smith in mice.

[1] = read-out: MINIMAL INHIBITORY CONCENTRATION MIC, pre-incubated in Mouse Serum
[2] = read-out: MINIMAL INHIBITORY CONCENTRATION MIC, pre-incubated in Water

## CCCN(CC(=O)Nc1cc(N(C)C)c2c(c1O)C(=O)C1=C(O)[C@]3(O)C(=O)C(C(N)=O)=C(O)[C@@H](N(C)C)[C@@H]3C[C@@H]1C2)C(=O)OCOC(=O)c1ccc(-c2ccccc2)cc1 [Example 24, ({[(2-{[(5aR,6aS,7S,10aS)-9-(aminocarbonyl)-4,7-bis(dimethylamino)-1,8,10a,11-tetrahydroxy-10,12-dioxo-5,5a,6,6a,7,10,10a,12-octahydrotetracen-2-yl]amino}-2-oxoethyl)(propyl)amino]carbonyl}oxy)methyl 1,1′-biphenyl-4-carboxylate]
E. coli GC 2231; GC2231, read-out: MINIMAL INHIBITORY CONCENTRATION MIC, pre-incubated in Mouse Serum
  MIC: 2 µg/mL (≈ 2.42 µM)
E. coli GC 2231; GC2231, read-out: MINIMAL INHIBITORY CONCENTRATION MIC, pre-incubated in Water
  MIC: > 64 µg/mL
E. coli GC 2232; GC2232, read-out: MINIMAL INHIBITORY CONCENTRATION MIC, pre-incubated in Mouse Serum
  MIC: 0.5 µg/mL (≈ 0.605 µM)
E. coli GC 2232; GC2232, read-out: MINIMAL INHIBITORY CONCENTRATION MIC, pre-incubated in Water
  MIC: > 64 µg/mL
E. coli GC 2234; GC2234, read-out: MINIMAL INHIBITORY CONCENTRATION MIC, pre-incubated in Mouse Serum
  MIC: 0.5 µg/mL (≈ 0.605 µM)
E. coli GC 2234; GC2234, read-out: MINIMAL INHIBITORY CONCENTRATION MIC, pre-incubated in Water
  MIC: > 64 µg/mL
E. coli GC 2272; GC2272, read-out: MINIMAL INHIBITORY CONCENTRATION MIC, pre-incubated in Mouse Serum
  MIC: 1 µg/mL (≈ 1.21 µM)
E. coli GC 2272; GC2272, read-out: MINIMAL INHIBITORY CONCENTRATION MIC, pre-incubated in Water
  MIC: > 64 µg/mL
E. coli GC 3226; GC3226, read-out: MINIMAL INHIBITORY CONCENTRATION MIC, pre-incubated in Mouse Serum
  MIC: 1 µg/mL (≈ 1.21 µM)
E. coli GC 3226; GC3226, read-out: MINIMAL INHIBITORY CONCENTRATION MIC, pre-incubated in Water
  MIC: > 64 µg/mL
S. typhimurium GC 2172; [1]
  MIC: 8 µg/mL (≈ 9.69 µM)
S. typhimurium GC 2172; [2]
  MIC: > 64 µg/mL
S. aureus GC 1131; GC1131, read-out: MINIMAL INHIBITORY CONCENTRATION MIC, pre-incubated in Mouse Serum
  MIC: 1 µg/mL (≈ 1.21 µM)
S. aureus GC 1131; GC1131, read-out: MINIMAL INHIBITORY CONCENTRATION MIC, pre-incubated in Water
  MIC: 2 µg/mL (≈ 2.42 µM)
S. aureus GC 6466; GC6466, read-out: MINIMAL INHIBITORY CONCENTRATION MIC, pre-incubated in Mouse Serum
  MIC: 0.25 µg/mL (≈ 0.303 µM)
S. aureus GC 6466; GC6466, read-out: MINIMAL INHIBITORY CONCENTRATION MIC, pre-incubated in Water
  MIC: 0.5 µg/mL (≈ 0.605 µM)
S. aureus GC 1079; GC1079, read-out: MINIMAL INHIBITORY CONCENTRATION MIC, pre-incubated in Mouse Serum
  MIC: 2 µg/mL (≈ 2.42 µM)
S. aureus GC 1079; GC1079, read-out: MINIMAL INHIBITORY CONCENTRATION MIC, pre-incubated in Water
  MIC: 64 µg/mL (≈ 77.5 µM)
S. aureus GC 2216; GC2216, read-out: MINIMAL INHIBITORY CONCENTRATION MIC, pre-incubated in Mouse Serum
  MIC: 0.5 µg/mL (≈ 0.605 µM)
S. aureus GC 2216; GC2216, read-out: MINIMAL INHIBITORY CONCENTRATION MIC, pre-incubated in Water
  MIC: 4 µg/mL (≈ 4.84 µM)
S. aureus GC 6335; GC6335, read-out: MINIMAL INHIBITORY CONCENTRATION MIC, pre-incubated in Mouse Serum
  MIC: 2 µg/mL (≈ 2.42 µM)
S. aureus GC 6335; GC6335, read-out: MINIMAL INHIBITORY CONCENTRATION MIC, pre-incubated in Water
  MIC: 16 µg/mL (≈ 19.4 µM)
S. epidermidis GC 4935; GC4935, read-out: MINIMAL INHIBITORY CONCENTRATION MIC, pre-incubated in Mouse Serum
  MIC: 2 µg/mL (≈ 2.42 µM)
S. epidermidis GC 4935; GC4935, read-out: MINIMAL INHIBITORY CONCENTRATION MIC, pre-incubated in Water
  MIC: 16 µg/mL (≈ 19.4 µM)
E. faecalis GC 2267; GC2267, read-out: MINIMAL INHIBITORY CONCENTRATION MIC, pre-incubated in Mouse Serum
  MIC: 4 µg/mL (≈ 4.84 µM)
E. faecalis GC 2267; GC2267, read-out: MINIMAL INHIBITORY CONCENTRATION MIC, pre-incubated in Water
  MIC: 64 µg/mL (≈ 77.5 µM)
E. faecium GC 4556; GC4556, read-out: MINIMAL INHIBITORY CONCENTRATION MIC, pre-incubated in Mouse Serum
  MIC: 1 µg/mL (≈ 1.21 µM)
E. faecium GC 4556; GC4556, read-out: MINIMAL INHIBITORY CONCENTRATION MIC, pre-incubated in Water
  MIC: 32 µg/mL (≈ 38.7 µM)
E. faecium GC 2243; GC2243, read-out: MINIMAL INHIBITORY CONCENTRATION MIC, pre-incubated in Mouse Serum
  MIC: 0.5 µg/mL (≈ 0.605 µM)
E. faecium GC 2243; GC2243, read-out: MINIMAL INHIBITORY CONCENTRATION MIC, pre-incubated in Water
  MIC: 2 µg/mL (≈ 2.42 µM)
S. pneumoniae* GC 4465; [1]
  MIC: < 0.06 µg/mL
S. pneumoniae* GC 4465; [2]
  MIC: < 0.06 µg/mL
S. pneumoniae+ GC 4465; [1]
  MIC: 2 µg/mL (≈ 2.42 µM)
S. pneumoniae+ GC 4465; [2]
  MIC: 1 µg/mL (≈ 1.21 µM)
S. pyogenes GC 4563; GC4563, read-out: MINIMAL INHIBITORY CONCENTRATION MIC, pre-incubated in Mouse Serum
  MIC: < 0.06 µg/mL
S. pyogenes GC 4563; GC4563, read-out: MINIMAL INHIBITORY CONCENTRATION MIC, pre-incubated in Water
  MIC: < 0.06 µg/mL
c. albicans GC 3066; Candida albicans, GC3066, read-out: MINIMAL INHIBITORY CONCENTRATION MIC
  MIC: > 64 µg/mL
c. albicans GC 3066; pre-incubated in Water
  MINIMAL INHIBITORY CONCENTRATION MIC: >64 UG/ML
Staph. aureus Smith; Staphylococcus aureus, in Mus musculus, po, read-out: ED50 Staph Smith SOD
  ED50: 27 mg/kg
Staph. aureus Smith; iv, read-out: ED50 Staph Smith SIV
  ED50: 0.59 mg/kg
